Data on six compounds can be found in patent US6869973B2, “Nitrosated and nitrosylated taxanes, compositions and methods of use” (NitroMed, Inc., priority 2000, dated 2005).

Experiment [1] concerns human coronary artery smooth muscle cells (CASMC). In words: Vascular smooth muscle cell (SMC) antiproliferation assay. It is filed as cell-based. The procedure:
The cells used in this assay were human coronary artery smooth muscle cells (CASMC) supplied by Clonetics Corp. (San Diego, Calif.). They were maintained in SmGM-2 growth medium (Clonetics Corp.), which consisted of modified MCDB 131 medium supplemented with 5% (v/v) fetal bovine serum (FBS), 0.5 ng/mL human recombinant epidermal growth factor (EGF), 2 ng/mL human recombinant fibroblast growth factor (FGF), 5 μg/mL bovine insulin, 50 μg/mL gentamicin sulfate, and 50 ng/mL amphotericin B under humidified 95% air-5% CO2 at 37° C.
For the SMC antiproliferation assay, the cells were seeded at 3×10^4 viable cells in 2 mL of SmGM-2 medium per well of a Corning 24 well plate (Corning, N.Y.). Stock solutions of the test compounds were prepared just prior to addition to the cells by dissolving in ethanol at a concentration of 40 mM. This stock solution was diluted, as required, with ethanol to lower concentrations. […] Control cultures received 2 μL of ethanol per well (n=4). On the following morning, the cultures were examined microscopically and their condition recorded. On the third day after test compound addition (˜68 hr), the cultures were examined microscopically again and the viable cells counted with an hemacytometer following trypsinization with 0.25% trypsin-1 mM EDTA. Trypan Blue dye exclusion was used to discriminate between viable and dead cells.
(§1) The SMC antiproliferation assay was performed as described in Example 5.
as §1

Experiment [2] deals with rabbit platelets. In words: Rabbit platelet aggregation assay (ADP-induced, platelet-rich plasma). It is filed as cell-based, New Zealand White rabbits. The conditions noted are these: rabbit PRP, 2 min pre-incubation, FIG. 2; for effect on platelet aggregation (qualitative): concentrations higher than 1 μM. The procedure:
Blood was collected from New Zealand White rabbits into a sodium citrate solution. Platelet-rich plasma (PRP) and platelet-poor plasma (PPP) were obtained by centrifugation of the citrated blood. Aggregation of the platelets, which was induced by addition of adenosine diphosphate (ADP), was measured in a Chrono-Log Aggregometer (Havertown, Pa.). Stock solutions of the test compounds were prepared in ethanol at concentrations 1000-fold higher than the final concentrations. The test compounds at these different concentrations were pre-incubated with the PRP for 2 min with stirring prior to the addition of ADP. Inhibition of aggregation was quantified as follows: % Inhibition=100% (1−(Max. Ampl. Agg. in Test Compound/Max. Ampl. Agg. Control)) • “Max. Ampl. Agg. In Test Compound” was the measured maximum amplitude of the platelets in the PRP in the presence of and after pre-incubation with the test compound. • “Max. Ampl. Agg. Control” was the measured maximum amplitude of the platelets in the PRP without test compound addition.
Nitric oxide inhibits the aggregation of platelets whether added as the gas or in the form of a NO donor.

Setting [3] is: CASMC, viable cell count ~68 hr after compound addition, FIG. 1 / FIG. 3.
Setting [4] is: CASMC, qualitative ranking against comparator named in the sentence.

Read-outs that look alike come from different tables or passages of the source.

Turning to “9-(2-({((2R)-2,3-bis(nitrooxy)propyl)oxycarbonyl}methoxy)acetyloxy)(1S,2S,4S,9S,10S,15S,7R,12R)-4,12-diacetyloxy-1-hydroxy-10,14,17,17-tetramethyl-6-oxa-11-oxo-2 phenylcarbonyloxytetracyclo (11.3.1.0<3,10>0.0<4,7>)heptadec-13-en-15-yl 2-(2-({((2R)-2,3-bis(nitrooxy)propyl)oxycarbonyl}methoxy)acetyloxy)(3S,2R)-3-phenyl-3-(phenylcarbonylamino)propanoate [Example 3]”, in experiment [1], the “comparison of inhibition of proliferation of vascular smooth muscle cells” value is “superior to paclitaxel” and the “concentration that totally suppressed cell proliferation of the seeded cells” value was 1 µM.
With `CC(=O)O[C@H]1C(=O)[C@@]2(C)C([C@H](OC(=O)c3ccccc3)C3(O)C[C@H](OC(=O)[C@H](O)[C@@H](NC(=O)c4ccccc4)c4ccccc4)C(C)=C1C3(C)C)[C@]1(OC(C)=O)CO[C@@H]1C[C@@H]2OC(=O)CC(C)(C)SN=O` (stereo partly drawn) [Example 1, 15-((3S,2R)-2-hydroxy-3-phenyl-3-(phenylcarbonylamino)propanoyloxy) (2S,4S,9S,10S,15S,7R,12R)-4,12-diacetyloxy-1-hydroxy-10,14,17,17-tetramethyl-6-oxa-11-oxo-2-phenylcarbonyloxytetracyclo (11.3.1.0<3,10>0.0<4,7>)heptadec-13-en-9-yl 3-methyl-3-(nitrosothio) butanoate], in experiment [1] (setting [3]), the “concentration that totally suppressed cell proliferation of the seeded cells” value worked out at 0.1 µM. The “comparison of inhibition of proliferation of vascular smooth muscle cells” value in experiment [1] (setting [4]) is “superior to its non-nitrosylated derivative (Example 1d)”. The “effect on platelet aggregation (qualitative)” value (shortened to “effect on platelet aggregation”) in experiment [2] is “inhibited platelet aggregation, but required higher concentrations than SNO-Glu”.
In the case of `CC(=O)O[C@H]1C(=O)[C@@]2(C)C([C@H](OC(=O)c3ccccc3)[C@]3(O)C[C@H](OC(=O)[C@H](O)[C@@H](NC(=O)c4ccccc4)c4ccccc4)C(C)=C1C3(C)C)[C@]1(OC(C)=O)CO[C@@H]1C[C@@H]2OC(=O)CC(C)(C)S` (stereo partly drawn) [Example 1d, 15-((3S,2R)-2-hydroxy-3-phenyl-3-(phenylcarbonylamino)propanoyloxy) (2S,4S,9S,10S,15S,7R,12R)-4,12-diacetyloxy-1-hydroxy-10,14,17,17-tetramethyl-6-oxa-11-oxo-2-phenylcarbonyloxytetracyclo(11.3.1.0<3,10>0.0<4,7>)heptadec-13-en-9-yl 3-methyl-3-sulfanylbutanoate], in experiment [1] (setting [3]), the “concentration that totally suppressed cell proliferation of the seeded cells” value was found to be 0.1 µM. Further, in experiment [2], the “effect on platelet aggregation” value is “did not prevent platelet aggregation”.
For the compound `CC(=O)OC1C(=O)C2(C)C(OC(=O)COCC(=O)OCC(CO[N+](=O)[O-])(CO[N+](=O)[O-])CO[N+](=O)[O-])CC3OCC3(OC(C)=O)C2C(OC(=O)c2ccccc2)C2(O)CC(OC(=O)C(OC(=O)COCC(=O)OCC(CO[N+](=O)[O-])(CO[N+](=O)[O-])CO[N+](=O)[O-])C(NC(=O)c3ccccc3)c3ccccc3)C(C)=C1C2(C)C` [Example 4, (1S,2S,4S,9S,10S,15S,7R,12R)-4,12-diacetyloxy-9-{2-(({2,2-bis((nitrooxy)methyl)-3-(nitrooxy)propyl}oxycarbonyl)methoxy)acetyloxy}-1-hydroxy-10,14,17,17-tetramethyl-6-oxa-11-oxo-2-phenylcarbonyloxytetracyclo (11.3.1.0<3,10>0.0<4,7>)heptadec-13-en-15-yl(3S,2R)-2-{2-(({2,2-bis ((nitrooxy)methyl)-3-(nitrooxy)propyl}oxycarbonyl)methoxy)acetyloxy}-3-phenyl-3-(phenylcarbonylamino)propanoate], the “concentration that totally suppressed cell proliferation of the seeded cells” value in experiment [1] (setting [3]) was found to be 1 µM. Further, the “comparison of inhibition of proliferation of vascular smooth muscle cells” value in experiment [1] (setting [4]) was “superior to paclitaxel”.
For the compound `CC(=O)O[C@H]1C(=O)[C@@]2(C)[C@H]([C@H](OC(=O)c3ccccc3)[C@]3(O)C[C@H](OC(=O)[C@H](O)[C@@H](NC(=O)c4ccccc4)c4ccccc4)C(C)=C1C3(C)C)[C@]1(OC(C)=O)CO[C@@H]1C[C@@H]2O` [Paclitaxel, reference compound], the “concentration that totally suppressed cell proliferation of the seeded cells” value in experiment [1] (setting [3]) is 0.01 µM. In addition, the “effect on platelet aggregation” value in experiment [2] is “did not prevent platelet aggregation”.
`N[C@@H](CCC(=O)N[C@@H](CSN=O)C(=O)NCC(=O)O)C(=O)O` [S-Nitrosoglutathione, reference compound]: in experiment [2], the “final concentration that totally inhibited platelet aggregation” value worked out at 1 µM.
